Values of other authors as cited in US12285410B2, “Combination comprising HDAC inhibitor and CD137 agonist for cancer therapy” (4SC AG, priority 2018, dated 2025).

Key:
[1] = test system: different types of blood cancer; conditions: 24 heavily pre-treated patients

Compound	complete remission (one patient), duration [1]	disease control, share of patients [1]	long-term stabilization, share of patients [1]	partial responder (one patient), duration [1]	tolerability [1]	immunologic and pharmacodynamic activity (at 0.1 mg/kg every 3 weeks)	tolerability (at 0.1 mg/kg every 3 weeks)	treatment-related AE: fatigue (at 0.1 mg/kg every 3 weeks)	treatment-related AE: nausea (at 0.1 mg/kg every 3 weeks)	maximum tolerated dose (every 3 weeks)
Cn1cc(-c2ccc(S(=O)(=O)n3ccc(/C=C/C(=O)Nc4ccccc4N)c3)cc2)cn1 [Compound 4SC-202, (E)-N-(2-aminophenyl)-3-(1-((4-(1-methyl-1H-pyrazol-4-yl)phenyl)sulfonyl)-1H-pyrrol-3-yl)acrylamide]	28 months	83%	50%	8 months	well tolerated with few and/or manageable adverse events	–	–	–	–	–
Urelumab	–	–	–	–	–	immunologic and pharmacodynamic activity demonstrated by the induction of IFN-inducible genes and cytokines	relatively well tolerated	16%	13%	0.1 mg/kg
